Test results from patent US20250186437A1, “CARBOLINE COMPOUNDS AND USE THEREOF” (PTC Therapeutics, Inc., priority 2021, published 2025).

Tests used:
MOLM-13 cells [1] = assay: MOLM-13 Cell Proliferation Assay (indicator of DHODH inhibition); assay type: cell-based; settings: Homo sapiens, 72 Hours of culture, CellTiter-Glo, no uridine
Outline: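 Proliferation readout via CellTiter-Glo luminescence after 72 h compound treatment (37 °C, 5% CO2, 0.5% DMSO) of MOLM-13 cells seeded at 10^4 per well in RPMI 1640/10% FBS, used as a DHODH-inhibition indicator since these cells rely on de novo pyrimidine synthesis.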

MOLM-13 cells [2] = assay: MOLM-13 Uridine Rescue Assay; assay type: cell-based; settings: Homo sapiens; MOLM-13 cell proliferation with 100 μM Uridine added, 72 Hours of culture
Method: The following assay was conducted to measure proliferation of MOLM-13 cells in the presence of each compound studied. This assay was included as an indicator of DHODH inhibition, as growth of MOLM-13 cells is known to depend on synthesis of pyrimidines using the de novo pathway, which can be blocked by inhibition of DHODH. • 1. MOLM-13 cells were cultured in RPMI 1640 medium+10% Fetal Bovine Serum (FBS). Only low passage cells (<20) were used for the compound tests • 2. On day 1, Log-phase growing Molm-13 Cells were counted and diluted to 10^5 cells/mL in RPMI 1640 medium+10% FBS • 3. 100 μL of diluted MOLM-13 cells in 96 well white plates were seeded, for a final density of 10^4 cells/well. • 4. 0.5 μL of pre-diluted 200× compounds or DMSO control was added to each well. The final DMSO concentration was 0.5%. • 5. After 72 Hours of culture at 37° C., 5% CO2, the plates were taken out and cooled to RT, then 50 μL CellTiter-Glo® (Promega) was added, and the composition was mixed at RT for 10 minutes. • 6. The plates were then read by ViewLux (Speed-fast, Gain-High, Bining-1X, 5 seconds).
Several compounds were also tested in a Uridine rescue assay. In the Uridine rescue assay, using the procedure in Example 1 above, an additional plate of MOLM-13 cell cultures was prepared, to which 100 μM of Uridine was added in step 3 of the process.

SMILES	IC50 (MOLM-13 cells [1]) [nM]	IC50 (MOLM-13 cells [2]) [nM]
FC(F)(F)c1ncnc(N2CCc3c([nH]c4ccc(Cl)cc34)[C@@H]2c2cnc(N3CCOCC3)nc2)n1 [Compound 460, (1S)-6-chloro-1-[2-(morpholin-4-yl)pyrimidin-5-yl]-2-[4-(trifluoromethyl)-1,3,5-triazin-2-yl]-2,3,4,9-tetrahydro-1H-pyrido[3,4-b]indole]	1.3	1160
CN1CCN(c2ncc(C3c4[nH]c5ccc(Cl)cc5c4CCN3c3nc(C(F)(F)F)cc(C(F)(F)F)n3)cn2)CC1 (stereo not shown) [Compound 381, 2-[4,6-bis(trifluoromethyl)pyrimidin-2-yl]-6-chloro-1-[2-(4-methylpiperazin-1-yl)pyrimidin-5-yl]-2,3,4,9-tetrahydro-1H-pyrido[3,4-b]indole]	0.7	4290
Cc1ccc(C2c3[nH]c4ccc(Cl)cc4c3CCN2c2nccc(C#N)n2)c(F)c1F (stereo not shown) [Compound 363, 2-[6-chloro-1-(2,3-difluoro-4-methylphenyl)-1,3,4,9-tetrahydro-2H-pyrido[3,4-b]indol-2-yl]pyrimidine-4-carbonitrile]	3.2	10300
Cc1ccc([C@H]2c3[nH]c4ccc(Cl)cc4c3CCN2c2nc(C(F)(F)F)nc(C(F)(F)F)n2)c(F)c1F [Compound 387, (1S)-2-[4,6-bis(trifluoromethyl)-1,3,5-triazin-2-yl]-6-chloro-1-(2,3-difluoro-4-methylphenyl)-2,3,4,9-tetrahydro-1H-pyrido[3,4-b]indole]	0.2	7660
Cc1ccc(C2c3[nH]c4cc(F)c(Cl)cc4c3CCN2c2nc(C)cc(C)n2)cc1 (stereo not shown) [Compound 66, 6-chloro-2-(4,6-dimethylpyrimidin-2-yl)-7-fluoro-1-(4-methylphenyl)-2,3,4,9-tetrahydro-1H-pyrido[3,4-b]indole]	9.7	–
C=Cc1ccc2[nH]c3c(c2c1)CCN(c1nccc(C(F)(F)F)n1)C3c1ccc(C)cc1 (stereo not shown) [Compound 291, 6-ethenyl-1-(4-methylphenyl)-2-[4-(trifluoromethyl)pyrimidin-2-yl]-2,3,4,9-tetrahydro-1H-pyrido[3,4-b]indole]	4.4	–
Cc1nc(C)nc(N2CCc3c([nH]c4ccc(Cl)c([N+](=O)[O-])c34)C2c2cnc(N3CCOCC3)nc2)n1 (stereo not shown) [Compound 325, 4-[5-[6-chloro-2-(4,6-dimethyl-1,3,5-triazin-2-yl)-5-nitro-1,3,4,9-tetrahydropyrido[3,4-b]indol-1-yl]pyrimidin-2-yl]morpholine]	167	–
Cc1nc(N2CCc3c([nH]c4cc(F)c(Cl)cc34)C2c2ccc(CCCCO)cc2)nc(C)c1F (stereo not shown) [Compound 249, 4-{4-[6-chloro-7-fluoro-2-(5-fluoro-4,6-dimethylpyrimidin-2-yl)-2,3,4,9-tetrahydro-1H-pyrido[3,4-b]indol-1-yl]phenyl}butan-1-ol]	2.2	–
Cc1ccc([C@@H]2c3[nH]c4ccc(Cl)cc4c3CCN2c2nccc(C#N)n2)c(F)c1F [Compound 176, 2-[(1R)-6-chloro-1-(2,3-difluoro-4-methylphenyl)-1,3,4,9-tetrahydro-2H-pyrido[3,4-b]indol-2-yl]pyrimidine-4-carbonitrile]	58.1	–
Cc1nc(N2CCc3c([nH]c4ccc(Cl)cc34)C2c2cnc(N3CCOCC3)nc2)nc(C(F)(F)F)n1 (stereo not shown) [Compound 440, 6-chloro-2-[4-methyl-6-(trifluoromethyl)-1,3,5-triazin-2-yl]-1-[2-(morpholin-4-yl)pyrimidin-5-yl]-2,3,4,9-tetrahydro-1H-pyrido[3,4-b]indole]	2.1	–
CN1CCN(c2ccc([C@H]3c4[nH]c5ccc(Cl)cc5c4CCN3c3nccc(C(F)(F)F)n3)cn2)CC1 [Compound 480, (1S)-6-chloro-1-[6-(4-methylpiperazin-1-yl)pyridin-3-yl]-2-[4-(trifluoromethyl)pyrimidin-2-yl]-2,3,4,9-tetrahydro-1H-pyrido[3,4-b]indole]	3.2	–
CC(C)c1ccc(C2c3[nH]c4cc(F)c(Cl)cc4c3CCN2c2nccc(C#N)n2)cc1 (stereo not shown) [Compound 55, 2-{6-chloro-7-fluoro-1-[4-(propan-2-yl)phenyl]-1,3,4,9-tetrahydro-2H-pyrido[3,4-b]indol-2-yl}pyrimidine-4-carbonitrile]	13.1	–
FC(F)(F)c1ccnc(N2CCc3c([nH]c4ccc(Cl)cc34)C2c2ccc(N3C[C@H]4C[C@@H]3CO4)nc2)n1 (stereo partly drawn) [Compound 373, 6-chloro-1-{6-[(1R,4R)-2-oxa-5-azabicyclo[2.2.1]heptan-5-yl]pyridin-3-yl}-2-[4-(trifluoromethyl)pyrimidin-2-yl]-2,3,4,9-tetrahydro-1H-pyrido[3,4-b]indole]	4.6	–

Continued by falling IC50 (MOLM-13 cells [1]), values first:

IC50 (MOLM-13 cells [1]) [nM]	IC50 (MOLM-13 cells [2]) [nM]	SMILES
50.6	–	Cc1nc(C#N)nc(N2CCc3c([nH]c4ccc(Cl)cc34)[C@@H]2c2cnc(N3CCOCC3)nc2)n1 [Compound 415, 4-{(1S)-6-chloro-1-[2-(morpholin-4-yl)pyrimidin-5-yl]-1,3,4,9-tetrahydro-2H-pyrido[3,4-b]indol-2-yl}-6-methyl-1,3,5-triazine-2-carbonitrile]
35.2	–	Cc1ccnc(N2CCc3c([nH]c4cc(F)c(Cl)cc34)C2c2ccc(C#N)cc2)n1 (stereo not shown) [Compound 61, 4-[6-chloro-7-fluoro-2-(4-methylpyrimidin-2-yl)-2,3,4,9-tetrahydro-1H-pyrido[3,4-b]indol-1-yl]benzonitrile]
11.7	–	CCCCN(CCCC)c1nc(C)nc(N2CCc3c([nH]c4ccc(Cl)cc34)C2c2cnc(N3CCOCC3)nc2)n1 (stereo not shown) [Compound 315, N,N-dibutyl-4-{6-chloro-1-[2-(morpholin-4-yl)pyrimidin-5-yl]-1,3,4,9-tetrahydro-2H-pyrido[3,4-b]indol-2-yl}-6-methyl-1,3,5-triazin-2-amine]
10.9	–	Cc1ccc(C2c3[nH]c4cc(F)c(Cl)cc4c3CCN2c2nc(C)c(C)c(C)n2)cc1 (stereo not shown) [Compound 163, 6-chloro-7-fluoro-1-(4-methylphenyl)-2-(4,5,6-trimethylpyrimidin-2-yl)-2,3,4,9-tetrahydro-1H-pyrido[3,4-b]indole]
8.9	–	NS(=O)(=O)c1ccc(C2c3[nH]c4ccc(Cl)c(F)c4c3CCN2c2nccc(C(F)(F)F)n2)cc1 (stereo not shown) [Compound 150, 4-{6-chloro-5-fluoro-2-[4-(trifluoromethyl)pyrimidin-2-yl]-2,3,4,9-tetrahydro-1H-pyrido[3,4-b]indol-1-yl}benzene-1-sulfonamide]
8.1	–	Cc1cc(C#N)nc(N2CCc3c([nH]c4ccc(Cl)c(F)c34)C2c2ccc(F)cc2)n1 (stereo not shown) [Compound 111, 2-[6-chloro-5-fluoro-1-(4-fluorophenyl)-1,3,4,9-tetrahydro-2H-pyrido[3,4-b]indol-2-yl]-6-methylpyrimidine-4-carbonitrile]
5.3	–	CN1CCN(c2ncc([C@H]3c4[nH]c5ccc(Cl)cc5c4CCN3c3ncnc(C(F)(F)F)n3)cn2)CC1 [Compound 488, (1S)-6-chloro-1-[2-(4-methylpiperazin-1-yl)pyrimidin-5-yl]-2-[4-(trifluoromethyl)-1,3,5-triazin-2-yl]-2,3,4,9-tetrahydro-1H-pyrido[3,4-b]indole]
1.3	13600	FC(F)(F)c1ncnc(N2CCc3c([nH]c4ccc(Cl)cc34)[C@@H]2c2ccc(N3CCOCC3)nc2)n1 [Compound 462, (1S)-6-chloro-1-[6-(morpholin-4-yl)pyridin-3-yl]-2-[4-(trifluoromethyl)-1,3,5-triazin-2-yl]-2,3,4,9-tetrahydro-1H-pyrido[3,4-b]indole]
1.2	2000	Cc1nc(C)nc(N2CCc3c([nH]c4c(O)cc(Cl)cc34)C2c2ccc(C)c(F)c2F)n1 (stereo not shown) [Compound 348, 6-chloro-1-(2,3-difluoro-4-methylphenyl)-2-(4,6-dimethyl-1,3,5-triazin-2-yl)-2,3,4,9-tetrahydro-1H-pyrido[3,4-b]indol-8-ol]
1.2	–	FC(F)(F)c1ccnc(N2CCc3c([nH]c4ccc(Cl)cc34)C2c2ccc(-n3cccn3)cc2)n1 (stereo not shown) [Compound 261, 6-chloro-1-[4-(1H-pyrazol-1-yl)phenyl]-2-[4-(trifluoromethyl)pyrimidin-2-yl]-2,3,4,9-tetrahydro-1H-pyrido[3,4-b]indole]
0.4	–	O=C(O)CCCNc1ncc([C@H]2c3[nH]c4ccc(Cl)cc4c3CCN2c2nc(C(F)(F)F)nc(C(F)(F)F)n2)cn1 [Compound 538, 4-[(5-{(1S)-2-[4,6-bis(trifluoromethyl)-1,3,5-triazin-2-yl]-6-chloro-2,3,4,9-tetrahydro-1H-pyrido[3,4-b]indol-1-yl}pyrimidin-2-yl)amino]butanoic acid]
0.2	–	Cc1nc(N2CCc3c([nH]c4ccc(Cl)cc34)[C@@H]2c2ccc(C)c(F)c2F)nc(C(F)(F)F)n1 [Compound 464, (1S)-6-chloro-1-(2,3-difluoro-4-methylphenyl)-2-[4-methyl-6-(trifluoromethyl)-1,3,5-triazin-2-yl]-2,3,4,9-tetrahydro-1H-pyrido[3,4-b]indole]
